Data taken from patent US8435586B2, “Use of alkoxylated flavones to intensify the sensory impression of alcohol” (Symrise AG, priority 2007, dated 2013).

Test system: expert panel
Test: Tasting of ethanol and HMF-containing mixtures by an expert panel (5% sucrose solution)
Format: in vivo, human
From the text: The test matrix used was a 5% sucrose solution having alcohol contents of 4 and 10% by volume respectively. Added to each of the two sucrose solutions were • a) nothing, • b) 2 ppm of HMF87 from Example 1, • c) 2 ppm of HMF99 from Example 1, • d) 5 ppm of HMF87 from Example 1 and • e) 5 ppm of HMF99 from Example 1.
All of these solutions were tasted by an expert panel consisting of five experts in each case.

| Compound | intensification of the alcohol impression compared with the samples without HMF (2 or 5 ppm of HMF87 or HMF99, 4 and 10% by volume alcohol, five experts) | difference between HMF87 and HMF99 in intensification of the alcohol impression (2 and 5 ppm, 4 and 10% by volume alcohol) |
| --- | --- | --- |
| COc1ccc(-c2oc3c(OC)c(OC)c(OC)c(OC)c3c(=O)c2OC)cc1OC [HMF, 3,3′,4′,5,6,7,8-heptamethoxyflavone] | highly significant intensification of the alcohol impression |  |
| COc1ccc(-c2oc3c(OC)c(OC)c(OC)c(OC)c3c(=O)c2OC)cc1OC [HMF99, 3,3′,4′,5,6,7,8-heptamethoxyflavone] |  | no significant difference |
